US20210161880A1, “METHODS FOR TREATING DEMENTIA RELATED PSYCHOSIS” (ACADIA Pharmaceuticals Inc., priority 2019, published 2021)

How the values were obtained:
Type in all cases: in vivo, human
[1] = test system: patients with dementia related psychosis; experiment: Open-label period of relapse prevention study of pimavanserin; conditions: for patients meeting response criteria: ≥30% reduction on SAPS-H+D total score and CGI-I score of 1 or 2
Protocol: (§1) A double-blind, placebo-controlled study of the efficacy and safety of pimavanserin was conducted to evaluate relapse prevention in patients with dementia related psychosis. The primary endpoint of this study was time from randomization to relapse in the double-blind period. The secondary endpoint of this study was time from randomization to discontinuation from the double-blind period for any reason.
Male or female patients ≥50 and ≤90 years of age were eligible if they met the criteria for All-cause Dementia according to NIA-AA guidelines. Eligible patients met the clinical criteria for one of the following disorders, with or without cerebrovascular disease (CVD): Dementia associated with Parkinson's disease; Dementia with Lewy bodies; Possible or probable Alzheimer's disease; Frontotemporal degeneration spectrum disorders, including possible or probable behavioral variant frontotemporal dementia, progressive supranuclear palsy, or corticobasal degeneration; or Vascular dementia, including post-stroke dementia, multi-infarct dementia and/or subcortical ischemic vascular dementia (SIVD). […] In addition, eligible patients had all of the following scores at Visit 1 (Screening) and Visit 2 (open-label Baseline): SAPS-H+D total score ≥10; CGI-S ≥4 (moderately ill); and SAPS-H+D global item (H7 or D13) score ≥4 (marked). Patients with a known personal or family history or symptoms of long QT syndrome were excluded.
(§2) The study consisted of a screening period of up to 4 weeks (3-28 days); an open-label period of 12 weeks; a double-blind period of up to 26 weeks; and an approximately 4-week safety follow-up period.
During the open-label period, patients started pimavanserin 34 mg once daily (QD) by mouth beginning at Week 0 (open-label Baseline). Pimavanserin was continued daily at this dose level for at least the first week of treatment. After the first week, if the patient was unable to tolerate the 34 mg dose, the dose was decreased to 20 mg (provided as two 10 mg tablets) at any study visit (scheduled or unscheduled) until Week 4 (Visit 4). If the dose was decreased to 20 mg it may later be increased to 34 mg based on investigator judgment at any study visit (scheduled or unscheduled) until Week 4 (Visit 4). After Week 4 (Visit 4), the dose of study drug remained fixed at either 34 mg or 20 mg once daily.
The response criteria was ≥30% reduction from open-label baseline on SAPS-H+D total score and CGI-I score of 1 or 2. Analysis was restricted to eligible patients at the visit. A patient was eligible for the visit if the number of days between minimum (study discontinuation date, end of treatment date) and the first open-label dose exceeded the lower limit of the analysis visit window for the visit.

[2] = test system: patients with dementia related psychosis; experiment: Double-blind, placebo-controlled period: relapse and all-cause discontinuation; conditions: for Hazard Ratio, relapse / Odds ratio, relapse: vs placebo
Protocol: as §1, §2
Randomization occurred at the double-blind Baseline visit (Week 12). Patients were randomly assigned 1:1 to continue their pimavanserin dose (34 mg or 20 mg) or matching placebo. Randomization was stratified by most likely dementia subtype or most prominent cause of dementia (Alzheimer's disease or frontotemporal dementia spectrum disorders, vascular dementia, or Parkinson's disease dementia or dementia with Lewy bodies) and by region.
Relapse criteria were assessed weekly for the first 2 weeks after randomization (Weeks 13 and 14), every 2 weeks until Week 26, and every 4 weeks through Week 38. Relapse criteria was also evaluated at unscheduled visits. Any patients who met any of the relapse criteria after randomization were withdrawn from study drug and entered the safety follow-up period of the study.

[3] = test system: patients with dementia related psychosis; experiment: Safety and tolerability (MMSE, long-term tolerability)
Protocol: Safety and tolerability of pimavanserin was also evaluated compared to placebo in patients with dementia related psychosis who have been stabilized on pimavanserin therapy. Safety endpoints were: treatment-emergent adverse events (TEAEs); serious adverse events (SAEs); withdrawals due to adverse events (AEs); clinically important changes in other safety assessments; Global Clinician Assessment of Suicidality (GCAS) score; Mini-Mental State Examination (MMSE) score; and Extrapyramidal Symptom Rating Scale (ESRS) score.

[4] = open-label period, Overall N = 351

CC(C)COc1ccc(CNC(=O)N(Cc2ccc(F)cc2)C2CCN(C)CC2)cc1 [pimavanserin, N-(4-Fluorophenylmethyl)-N-(1-methylpiperidin-4-yl)-N′-(4-(2-methylpropyloxy)phenylmethyl)carbamide]
psychosis (total SAPS-H+D change), exploratory analysis ([1]; across subtypes of dementia, baseline MMSE, baseline dementia severity, FIGS. 4A-C): substantially reduced psychosis | patients meeting response criteria ([1]; by Week 4, FIG. 2A): about 50% | patients meeting response criteria ([1]; by Week 8, FIG. 2B): about 70% | total SAPS-H+D reduction in change from open-label baseline ([1]; by Week 12, FIG. 1): 75.2% | CGI-S score reduction from baseline ([1]; by Week 12, overall population and across subtypes of dementia, FIG. 5A, 5B): about 2 | response rate across subgroups ([1]; dementia subtypes, baseline MMSE, age, psychosis severity, FIG. 2C-2F): consistently high response rate | patients demonstrating sustained response ([1]; open label period): > 60% | Early Termination: Adverse Event, (%) ([1]; open-label period, AD N = 229): (7.9) % | Early Termination: Lack of Response in Open Label, (%) ([1]; open-label period, AD N = 229): (20.1) % | Randomized to Double-blind Period, (%) ([1]; open-label period, AD N = 229): (59.8) % | Early Termination: Adverse Event, (%) ([1]; open-label period, DLB N = 22): (4.5) % | Early Termination: Lack of Response in Open Label, (%) ([1]; open-label period, DLB N = 22): (40.9) % | Randomized to Double-blind Period, (%) ([1]; open-label period, DLB N = 22): (45.5) % | Early Termination: Adverse Event, (%) ([1]; open-label period, FTD N = 6): (16.7) % | Early Termination: Lack of Response in Open Label, (%) ([1]; open-label period, FTD N = 6): (33.3) % | Randomized to Double-blind Period, (%) ([1]; open-label period, FTD N = 6): (50) % | Early Termination: Adverse Event, (%) [1, 4]: (7.7) % | Early Termination: Adverse Event, Number [1, 4]: 27 | Early Termination: Death, (%) [1, 4]: (0.3) % | Early Termination: Death, Number [1, 4]: 1 | Early Termination: Lack of Response in Open Label, (%) [1, 4]: (19.9) % | Early Termination: Lack of Response in Open Label, Number [1, 4]: 70 | Randomized to Double-blind Period, (%) [1, 4]: (61.8) % | Randomized to Double-blind Period, Number [1, 4]: 217 | Early Termination: Adverse Event, (%) ([1]; open-label period, PDD N = 59): (6.8) % | Early Termination: Death, (%) ([1]; open-label period, PDD N = 59): (1.7) % | Early Termination: Lack of Response in Open Label, (%) ([1]; open-label period, PDD N = 59): (15.3) % | Randomized to Double-blind Period, (%) ([1]; open-label period, PDD N = 59): (71.2) % | Early Termination: Adverse Event, (%) ([1]; open-label period, VaD N = 35): (8.6) % | Early Termination: Lack of Response in Open Label, (%) ([1]; open-label period, VaD N = 35): (11.4) % | Randomized to Double-blind Period, (%) ([1]; open-label period, VaD N = 35): (71.4) % | Incidence of relapse, (%) ([2]; AD): 13.1% | Incidence of relapse, n/N ([2]; AD): 8/61 | Hazard Ratio, relapse ([2]; AD): 0.618 | Odds ratio, relapse ([2]; AD): 0.5175 | Hazard Ratio (Pimavanserin/Placebo), relapse ([2]; Cox regression, 95% CI (0.172, 0.727), one-sided p 0.0023): 0.353 | Hazard Ratio (Pimavanserin/Placebo), all-cause discontinuation ([2]; Cox regression, 95% CI (0.261, 0.785), one-sided p 0.0024): 0.452 | Incidence of relapse, (%) ([2]; DLB): 0.0% | Incidence of relapse, n/N ([2]; DLB): 0/6 | Incidence of relapse, (%) ([2]; FTD): 100% | Incidence of relapse, n/N ([2]; FTD): 1/1 | Incidence of relapse, (%) ([2]; Overall): 12.6% | Incidence of relapse, n/N ([2]; Overall): 12/95 | Hazard Ratio, relapse ([2]; Overall): 0.353 | Odds ratio, relapse ([2]; Overall): 0.3666 | Incidence of relapse, (%) ([2]; PDD): 6.7% | Incidence of relapse, n/N ([2]; PDD): 1/15 | Hazard Ratio, relapse ([2]; PDD): 0.054 | Odds ratio, relapse ([2]; PDD): 0.0714 | Incidence of relapse, (%) ([2]; VaD): 16.7% | Incidence of relapse, n/N ([2]; VaD): 2/12 | Hazard Ratio, relapse ([2]; VaD): 1.065 | Odds ratio, relapse ([2]; VaD): 1.00 | reduction of risk of relapse of dementia related psychosis (psychotic exacerbation) compared to placebo ([2]; double-blind period, FIG. 6): 2.8 times | reduction of risk of all-cause discontinuation compared to placebo ([2]; double-blind period, FIG. 7): 2.2 × | Completed Week 26 Without a Relapse, (%) ([2]; double-blind period, N = 95): 38.9% | Number of Patients Discontinued for Any Reason, (%) ([2]; double-blind period, N = 95): 22.1% | Number of Patients Having a Relapse Event, (%) ([2]; double-blind period, N = 95): 12.6% | patients on placebo more likely to drop out of the trial for any reason ([2]; placebo vs pimavanserin): 2.2 times | tolerability ([3]; 34 mg, given long term in the elderly population): well tolerated | impact on cognition (MMSE) ([3]; over 9 months of treatment, FIG. 8): no negative impact
